As usually defined, the IC50 is the concentration at which inhibition is half-maximal.

The target of experiment [1] is T1, recombinant human p38α MAPK (Homo sapiens, UniProt Q16539).
T1 construct: purchased UBI 14-251; host or cells: E. coli
Briefly: Human p38α MAP kinase inhibition assay (cell-free). The class given is biochemical. As to conditions: MBP substrate, 100 μM ATP. The method, then: (§1) The biological activities of compounds of the present invention were measured in assays which include: • 1) Inhibition of rat liver HMG-CoA reductase. Further details on the assay are present in Heller, R. A.; Gould, R. G. Biochem. Biophys. Research Commun. 1973, 50, 859 and Kubo, M.; Strott, C. A.; Endocrinology 1987, 120, 214. • 2) Inhibition of recombinant human p38αMAPK • 3) Inhibition of lipopolysaccharide (LPS)-stimulated release of tumor necrosis factor alpha (TNFα) from human peripheral blood mononuclear cells (PBMC).
Human p38αMAP Kinase Inhibition Assay: In vitro cell-free p38αMAP kinase inhibition assays were conducted by the method as described in Clerk et al., FEBS Lett., 426:93-96 (1998) for a number of lactones in formulas I/IIa/IIb. Briefly, human recombinant p38α protein kinase expressed in E. coli (UBI #14-251) was used. Myelin basic protein (MBP, UBI #13-110) was employed as substrate, and microtiter plate wells were coated with MBP (0.01 mg/ml) overnight at 4° C. Candidate compound and/or vehicle was preincubated with 0.075 μg/mL enzyme in modified HEPES buffer pH 7.4 at 25° C. for 15 minutes. The reaction was initiated by addition of 100 μM ATP and allowed to proceed for another 60 minutes. The reaction was terminated by aspirating the solution. Phosphorylated MBP was detected by incubation with a mouse monoclonal IgG2a anti-phosphoMBP antibody. Bound anti-phosphoMBP antibody was quantitated by incubation with a HRP conjugated goat anti-mouse IgG. The protein kinase activity was proportional to the readings of optical density at 405 nm resulting from reaction with an ABTS Microwell Peroxidase Substrate System.

Experiment [2] deals with lipopolysaccharide-stimulated release of TNFα from human peripheral blood mononuclear cells (PBMC). Description: Whole cell LPS-stimulated TNF-α release assay. To be noted: read-out: TNFα Release IC50. In kind it is cell-based. How it is done: as §1
Whole Cell LPS-Stimulated TNF-α Release Assay: The procedure as described in Welker et al., Int. Arch. Allergy and Immunol. 109:110-115 (1996) was followed. Briefly, a candidate compound and/or vehicle was preincubated with human peripheral blood mononuclear leukocytes (PBML, 5×10^5/ml) cells in AIM-V medium pH 7.4 for 2 hours. Lipopolysaccharide (LPS, 25 ng/ml) was added to stimulate the cells, which was incubated overnight at 37° C. TNF-α cytokine levels in the conditioned medium was then quantitated using a sandwich ELISA kit.

In experiment [3] the target is T2, rat liver hydroxymethylglutaryl-CoA reductase (Rattus norvegicus, UniProt P51639).
T2 sequence (P51639 1-887): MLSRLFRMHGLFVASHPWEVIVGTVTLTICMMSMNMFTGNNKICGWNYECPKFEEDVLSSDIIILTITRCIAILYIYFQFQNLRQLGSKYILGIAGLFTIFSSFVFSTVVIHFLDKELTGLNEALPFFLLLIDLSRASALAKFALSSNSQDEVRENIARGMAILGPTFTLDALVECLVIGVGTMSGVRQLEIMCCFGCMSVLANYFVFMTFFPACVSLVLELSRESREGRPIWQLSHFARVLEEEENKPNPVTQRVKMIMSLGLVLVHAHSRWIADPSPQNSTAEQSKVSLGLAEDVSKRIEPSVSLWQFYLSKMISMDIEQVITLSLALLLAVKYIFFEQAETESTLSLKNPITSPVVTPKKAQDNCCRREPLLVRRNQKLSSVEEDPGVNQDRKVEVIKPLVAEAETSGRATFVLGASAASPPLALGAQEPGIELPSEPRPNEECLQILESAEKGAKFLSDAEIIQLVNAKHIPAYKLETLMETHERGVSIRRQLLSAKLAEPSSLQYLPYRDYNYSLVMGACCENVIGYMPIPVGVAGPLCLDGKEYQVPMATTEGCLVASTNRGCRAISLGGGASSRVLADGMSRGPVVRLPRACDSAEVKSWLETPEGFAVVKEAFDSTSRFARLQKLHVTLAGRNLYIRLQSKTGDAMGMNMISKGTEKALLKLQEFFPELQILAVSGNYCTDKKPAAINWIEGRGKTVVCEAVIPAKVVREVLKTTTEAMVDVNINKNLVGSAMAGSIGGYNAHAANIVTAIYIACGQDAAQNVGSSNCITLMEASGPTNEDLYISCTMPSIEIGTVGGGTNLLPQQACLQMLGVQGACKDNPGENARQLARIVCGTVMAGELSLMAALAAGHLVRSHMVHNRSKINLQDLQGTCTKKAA
Description: Inhibition of rat liver HMG-CoA reductase. In kind it is biochemical. As to conditions: rat liver HMG-CoA reductase activity inhibited by 50%; read-out: HMG-CoA R IC50. The method, then:
as §1

Where a name gives a salt, the structure may show the parent alone. Read-outs that look alike come from different tables or passages of the source. A value given as a limit tells only on which side of the number the result lay.

T1 sequence (Q16539 whole entry): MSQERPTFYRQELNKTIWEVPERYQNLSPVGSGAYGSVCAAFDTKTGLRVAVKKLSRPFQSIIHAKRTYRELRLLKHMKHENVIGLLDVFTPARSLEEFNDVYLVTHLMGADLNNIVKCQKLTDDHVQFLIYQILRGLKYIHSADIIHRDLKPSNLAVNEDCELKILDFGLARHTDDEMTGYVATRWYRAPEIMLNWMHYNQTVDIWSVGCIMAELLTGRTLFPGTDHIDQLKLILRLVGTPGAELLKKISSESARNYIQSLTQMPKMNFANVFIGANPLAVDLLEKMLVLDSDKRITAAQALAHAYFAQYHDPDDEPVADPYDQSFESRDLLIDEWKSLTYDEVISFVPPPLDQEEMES

Consider `CC(C)c1nc(-c2ccc(F)cc2)c(-c2ccnc(Nc3ccccc3)n2)n1CC[C@@H]1C[C@@H](O)CC(=O)O1` [Example 24, (4R,6R)-6-(2-(4-(4-fluorophenyl)-2-isopropyl-5-(2-(phenylamino)pyrimidin-4-yl)-1H-imidazol-1-yl)ethyl)-4-hydroxytetrahydro-2H-pyran-2-one], for which the IC50 in experiment [1] was 110 nM; in experiment [2] (LPS-stimulated human PBMC), under 3000 nM.
As for `CC(C)(C)c1nc(-c2ccc(F)cc2)c(-c2ccncc2)n1/C=C/[C@@H](O)C[C@@H](O)CC(=O)O` (racemic) [Example 33, (3R,5S,E) and (3S,5R,E)-7-(2-tert-butyl-4-(4-fluorophenyl)-5-(pyridin-4-yl)-1H-imidazol-1-yl)-3,5-dihydroxyhept-6-enoic acid sodium salt], the IC50 in experiment [3] is 11 nM; in experiment [1], 6000 nM; in experiment [2] (LPS-stimulated human PBMC), 230000 nM.
`CC(C)c1nc(-c2ccc(F)cc2)c(-c2ccnc(Nc3ccccc3)n2)n1/C=C/[C@@H]1C[C@@H](O)CC(=O)O1` (racemic) [Example 29, (4R,6S) and (4S,6R)-6-((E)-2-(4-(4-fluorophenyl)-2-isopropyl-5-(2-(phenylamino)pyrimidin-4-yl)-1H-imidazol-1-yl)vinyl)-4-hydroxytetrahydro-2H-pyran-2-one]: the half-maximal inhibitory concentration (IC50) was under 100 nM in experiment [1] and 19000 nM in experiment [2] (LPS-stimulated human PBMC).
Consider `CC(C)c1nc(-c2ccc(F)cc2)c(-c2ccnc(Nc3ccccc3)n2)n1/C=C/[C@@H](O)C[C@@H](O)CC(=O)O` (racemic) [Example 28, (3R,5S,E) and (3S,5R,E)-7-(4-(4-fluorophenyl)-2-isopropyl-5-(2-(phenylamino)pyrimidin-4-yl)-1H-imidazol-1-yl)-3,5-dihydroxyhept-6-enoic acid sodium salt], for which the IC50 came to 4.8 nM in experiment [3], 270 nM in experiment [1] and 9700 nM in experiment [2] (LPS-stimulated human PBMC).
On to `O=C(O)C[C@H](O)C[C@H](O)CCn1c(-c2ccccc2)nc(-c2ccc(F)cc2)c1-c1ccncn1` [Example 39, (3R,5R)-7-(4-(4-fluorophenyl)-2-phenyl-5-(pyrimidin-4-yl)-1H-imidazol-1-yl)-3,5-dihydroxyheptanoic acid calcium salt], for which the IC50 in experiment [3] was over 1000 nM; in experiment [1], 14000 nM; in experiment [2] (Homo sapiens, PBMC), over 300000 nM.
With `CC(C)(C)c1nc(-c2ccc(F)cc2)c(-c2ccncc2)n1/C=C/[C@@H]1C[C@@H](O)CC(=O)O1` (racemic) [Example 34, (4R,6S) and (4S,6R)-6-((E)-2-(2-tert-butyl-4-(4-fluorophenyl)-5-(pyridin-4-yl)-1H-imidazol-1-yl)vinyl)-4-hydroxytetrahydro-2H-pyran-2-one], the IC50 in experiment [1] came to 1800 nM; in experiment [2] (LPS-stimulated human PBMC) it was 190000 nM.
The like results for `O=C1C[C@H](O)C[C@@H](CCn2c(-c3ccccc3)nc(-c3ccc(F)cc3)c2-c2ccncn2)O1` [Example 40, (4R,6R)-6-(2-(4-(4-fluorophenyl)-2-phenyl-5-(pyrimidin-4-yl)-1H-imidazol-1-yl)ethyl)-4-hydroxytetrahydro-2H-pyran-2-one] were, in that order, 1400 nM and 26000 nM.
`CC(C)c1nc(-c2ccc(F)cc2)c(-c2ccnc(Nc3ccccc3)n2)n1CC[C@@H](O)C[C@@H](O)CC(=O)O` [Example 25, (3R,5R)-7-(4-(4-fluorophenyl)-2-isopropyl-5-(2-(phenylamino)pyrimidin-4-yl)-1H-imidazol-1-yl)-3,5-dihydroxyheptanoic acid sodium salt]: the half-maximal inhibitory concentration (IC50) in experiment [3] is 98 nM; in experiment [1], under 100 nM; in experiment [2] (LPS-stimulated human PBMC), 9700 nM.

The values are drawn from patent US20090227602A1, “COMPOSITIONS AND TREATMENTS FOR INHIBITING KINASE AND/OR HMG-COA REDUCTASE” (priority 2005, published 2009).
